Our source for the TGI values is PubChem BioAssay (NCI).

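96-well plates; 48 h exposure; 5 concentrations. Endpoints by linear interpolation between flanking doses. Not reached: highest tested concentration assigned. TGI: concentration producing complete growth inhibition.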 Some results are limits rather than exact numbers.

Holding throughout (experiment): NCI anticancer screen, dose series, 48 h
Assay [1] has as its system COLO 205 colon.
The test system of assay [2] is HT29 colon.
Assay [3] has as its system NCI/ADR-RES ovarian.
Assay [4] relates to MOLT-4 leukemia.
The subject of assay [5] is CAKI-1 renal.
Assay [6] deals with MDA-N.
For assay [7], the system named is HS 578T breast.
Assay [8] deals with OVCAR-5 ovarian.
Assay [9] relates to NCI-H460 lung.
The subject of assay [10] is SNB-19 CNS.
Assay [11] has as its system K-562 leukemia.

As for `O=C(NNC(=O)c1cc2ccccc2[nH]1)c1cc2ccccc2[nH]1`, the TGI in assay [1], in [2], in assay [3], in [4], in assay [5] and in [6] was greater than 100 µM each time. Further, the TGI in assay [7], in [8], in assay [9], in assay [10] and in assay [11] was greater than 100 µM each time.
Turning to `O=[N+]([O-])C1=Cc2c(O)ccc(O)c2C2c3ccccc3NC12` (configuration not stated), the TGI was 33.9 µM in [1]; 26.4 µM in assay [2]; 51 µM in assay [3]; greater than 44.5 µM in [4]; 8.99 µM in [5]; 39.3 µM in [6]. Besides, the TGI was greater than 57 µM in assay [7]; 34.1 µM in assay [8]; 33.5 µM in assay [9]; 34.5 µM in [10]; greater than 100 µM in assay [11].
As to `CC(=O)OCC1OC(NC(=S)Nn2c(-c3ccccc3)nc3ccccc3c2=O)C(OC(C)=O)C(OC(C)=O)C1OC(C)=O` (configuration not stated), the TGI in assay [1], in assay [2], in assay [3], in [4], in assay [5] and in [6] was greater than 100 µM each time. Further, the TGI in [7], in assay [8], in [9], in [10] and in assay [11] was greater than 100 µM in each case.
For `COc1cc(N(CCC#N)CCC#N)ccc1/C(N=Nc1cccc([N+](=O)[O-])c1)=N\NC(=O)c1ccc(C)cc1`, the TGI in [1], in assay [2], in assay [3], in assay [4], in assay [5] and in [6] was greater than 100 µM each time. Moreover, the TGI in assay [7] was greater than 100 µM; in assay [8] it was greater than 100 µM; in assay [9], 70.5 µM; in assay [10] it was greater than 100 µM; in assay [11] it was greater than 100 µM.
For `COc1cc(CCNC2=CC(=O)c3ncccc3C2=O)ccc1O`, the TGI in assay [1] is 32.6 µM; in assay [2], 28.4 µM; in assay [3], greater than 23.3 µM; in assay [4] it was 22.8 µM; in assay [5] it was 12 µM; in assay [6], 2.72 µM. Besides, the TGI in [7] was found to be 15.6 µM; in assay [8], 22.7 µM; in [9], 2.71 µM; in [10], 17.7 µM; in [11], 17.7 µM.
Turning to `COc1ccc(CC(COS(=O)(=O)c2ccc(C)cc2)NS(=O)(=O)c2ccc(C)cc2)cc1` (configuration not stated), the TGI in [1] is 34.3 µM; in assay [2], greater than 50.9 µM; in assay [3], greater than 52.7 µM; in [4], greater than 100 µM; in [5], greater than 60.8 µM; in assay [6], greater than 62.6 µM. For the same molecule, the TGI in assay [7] was 58.8 µM; in assay [8], 39.9 µM; in assay [9], 55.2 µM; in assay [10], 32.6 µM; in assay [11] it was greater than 100 µM.
In the case of `O=c1[nH]c2ccccc2c(=O)c2cc3ccccc3cc12`, the TGI in assay [1] was greater than 100 µM; in assay [2], greater than 100 µM; in [3], greater than 100 µM; in assay [4] it was greater than 100 µM; in assay [5] it was 45.5 µM; in assay [6], greater than 100 µM. The TGI was 70.9 µM in [7]; greater than 100 µM in assay [8]; 53.6 µM in assay [9]; 37.3 µM in [10]; greater than 100 µM in assay [11].
As for `CN(C)CCCCN1c2ccccc2Sc2ccc(N=[N+]=[N-])cc21`, the TGI was 3.13 µM in [1]; 5.22 µM in [2]; 23.3 µM in assay [3]; 5.85 µM in assay [4]; 18.4 µM in [5]; 3.59 µM in assay [6]. Moreover, the TGI in assay [7] was 18.4 µM; in assay [8], 13.5 µM; in [9], 16.2 µM; in assay [10], 23.5 µM; in [11] it was 4.56 µM.
Consider `COC(=O)c1nc2n(n1)-c1ccccc1C(=O)N(Cc1ccccc1)C2`, for which the TGI in assay [1], in assay [2], in assay [3], in assay [4], in [5] and in [6] was greater than 100 µM throughout. Besides, the TGI in assay [7], in assay [8], in assay [9], in assay [10] and in assay [11] was greater than 100 µM in each case.
With `CSc1ccc(/C=C2\N=C(c3ccccc3)N(NC(=O)c3c(Cl)c(Cl)c(Cl)c(Cl)c3-c3nc4ccccc4[nH]3)C2=O)cc1`, the TGI in assay [1] was 95.9 µM; in assay [2], greater than 100 µM; in [3] it was greater than 100 µM; in [4] it was 77.3 µM; in assay [5], 85.3 µM; in assay [6] it was greater than 100 µM. Besides, the TGI in [7] was greater than 100 µM; in [8], greater than 100 µM; in [9], 28 µM; in assay [10], greater than 100 µM; in assay [11] it was 66.4 µM.
As for `Nc1nc(NCc2ccccc2)cc(NCc2ccccc2)n1`, the TGI in assay [1] is 27.3 µM; in [2], 11.9 µM; in assay [3], 15.3 µM; in assay [4], greater than 100 µM; in [5], 9.74 µM; in assay [6], 5.97 µM. The TGI in assay [7] is 13.4 µM; in [8], 50.4 µM; in [9] it was 32.5 µM; in assay [10], 31 µM; in assay [11], greater than 100 µM.
Take `C[N+](C)(C)CC(=O)N/N=C\c1c(O)ccc2ccccc12`: the TGI in [1] is greater than 100 µM; in assay [2], greater than 100 µM; in [3], greater than 100 µM; in [4] it was 51.7 µM; in [5], greater than 100 µM; in assay [6], greater than 100 µM. Further, the TGI is 56.5 µM in assay [7]; greater than 100 µM in assay [8]; 70.5 µM in [9]; greater than 100 µM in assay [10]; greater than 100 µM in assay [11].
